Assay [1] has as its system 786-O (renal cell carcinoma) cells. As to the kind of experiment: Cell proliferation (Alamar Blue) assay, 786-O cells. Particulars: Homo sapiens. The format is cell-based. The procedure: (§1) Cell viability assay was performed to assess the potency of the compounds in human cancer cell lines 786-0 (renal cell carcinoma) and SJSA-1 (osteosarcoma). Additional cell lines, such as pancreatic cancer cell lines (Panc 02.13, BxPC-3, Panc 12, Panc 02.03, Panc 6.03, PSN-1, HPAC, and Capan-1), prostate cancer cell lines (PC-3, DU145, […], NCI-H660, 1PH1 LNCaP, BM-1604, and MDA PCa 2b), etc., can be tested in a similar method.
(§2) Cells (SJSA-1, 786-0 and A431) were seeded (5000 cells/100 μL/well) in 96-well tissue culture plate and incubated at 37° C./500 CO2 for 16-24 hours. The cells were then treated with compounds (25 μL of 5×). The compound concentrations were 10-0.0005 μM prepared in 3-fold serial dilutions with final DMSO concentration of 1%. The plates were then incubated for 24 h at 37° C./[…] in a moist environment. Then Alamar Blue™ reagent (final concentration 1×-12.5 μL) was added to each well and incubated for 1.5 hours at 37° C./500 CO2. The plates were read on fluorescence reader at 540 nm excitation and 590 nm emission wavelengths. The IC50 values were subsequently determined using a sigmoidal dose-response curve (variable slope) in GraphPad Prism® 5 software. Tables A-3 and B-11 show cell proliferation data for exemplary compounds as described herein.
In general terms: Resazurin is reduced to fluorescent resorufin, in cell work by metabolically active cells.

Assay [2] deals with 786-O cells + Ferrastatin-1. As to the kind of experiment: GPX4 inhibition assay: cell proliferation (Alamar Blue) in 786-O cells with ferrostatin rescue. Type of assay: cell-based, human. On the procedure:
as §2
Studies have shown that lipophilic antioxidants, such as ferrostatin, can rescue cells from GPX4 inhibition-induced ferroptosis. For instance, mesenchymal state GPX4-knockout cells can survive in the presence of ferrostatin, however, when the supply of ferrostatin is terminated, these cells undergo ferroptosis (see, e.g., Viswanathan et al., Nature 547:453-7, 2017). […] Accordingly, the ability of a molecule to induce ferroptotic cancer cell death, and that such ability is admonished by the addition of ferrostatin, is clear indication that the molecule is an GPX4 inhibitor. Cell proliferation data for exemplary compounds with and without ferrostatin can be seen in Table A-3.

In a further assay the test system is A431 cells. Nature of the assay: Cell proliferation (Alamar Blue) assay, A431 cells. Particulars: Homo sapiens. The format is cell-based. The procedure:
as §1, §2

Where [3] appears, read: 786-0, 786-O cells, 24 h compound treatment, Alamar Blue, read-out: IC50 (μM) 786-O.
Where [4] appears, read: 786-O cells in presence of Ferrastatin-1 (rescue), read-out: IC50 (μM) 786-O + Ferrastatin-1.
Setting [5] is: A-431, A431 cells, 24 h compound treatment, Alamar Blue, read-out: IC50 (μM) A431.
The mark [6] stands for this setting: 786-0, 786-O cells, 24 h compound incubation, Alamar Blue, read-out: Cell proliferation IC50 (μM) 786-O.
The mark [7] stands for this setting: 786-O cells with Ferrastatin-1 (rescue), read-out: Cell proliferation IC50 (μM) 786-O + Ferrastatin-1.
The mark [8] stands for this setting: A-431, A431 cells, 24 h compound incubation, Alamar Blue, read-out: Cell proliferation IC50 (μM) A431.

Like-named read-outs stand apart in the source and are kept apart here.

Consider `C#CC(=O)N1[C@@H](CCCC)Cc2cc(OC)ncc2[C@H]1c1ccc(NC23CC4CC(CC(C4)C2)C3)cc1` [Compound B-68], for which the IC50 in assay [1] (setting [3]) came to 0.042 µM; in assay [2] (setting [4]) it was 2.61 µM; in the assay on A431 cells (setting [5]), 2.35 µM.

On to `C#CC(=O)N1[C@@H](CCCC)Cc2cc(OC(F)(F)F)ccc2[C@@H]1c1ccc(NC23CC4CC(CC(C4)C2)C3)cc1` [Compound B-79], for which the IC50 in assay [1] (setting [3]) turned out to be 0.017 µM; in assay [2] (setting [4]) it was 1 µM; in the assay on A431 cells (setting [5]) it was 7 µM.

With `C#CC(=O)N1[C@@H](CCC(C)C)Cc2cc(OC)ccc2[C@@H]1c1ccc(NC23CC4CC(CC(C4)C2)C3)cc1` [Compound B-72], the IC50 in assay [1] (setting [3]) came to 0.036 µM; in assay [2] (setting [4]), 1.6 µM; with A431 cells (setting [5]), 1.7 µM.

Take `C#CC(=O)N1[C@@H](CCCC)Cc2c(OC)cccc2[C@@H]1c1ccc(NC23CC4CC(CC(C4)C2)C3)cc1` [Compound B-69]: the IC50 was determined as 0.015 µM in assay [1] (setting [3]), 2.47 µM in assay [2] (setting [4]) and 1.79 µM with A431 cells (setting [5]).

Regarding `C#CC(=O)N1[C@@H](CCCC)Cc2cc(OC)ccc2[C@@H]1c1ccc(NC23CC4CC(CC(C4)C2)C3)c(Cl)c1` [Compound B-66], the IC50 in assay [1] (setting [3]) amounted to 0.055 µM; in assay [2] (setting [4]), 2.62 µM; in the assay with A431 cells (setting [5]), 3.15 µM.

Consider `CCCC[C@H]1Cc2cc(OC)ccc2[C@H](C23CC(F)(C2)C3)N1C(=O)C#C[Si](C)(C)C` [Compound A-9, 1-((1S,3S)-3-butyl-1-(3-fluorobicyclo[1.1.1]pentan-1-yl)-6-methoxy-3,4-dihydroisoquinolin-2(1H)-yl)-3-(trimethylsilyl)prop-2-yn-1-one], for which the IC50 in assay [1] (setting [6]) is 0.18 µM; in assay [2] (setting [7]), over 1 µM; in the assay with A431 cells (setting [8]) it was over 1 µM.

Regarding `CCCC[C@H]1Cc2cc(OC(F)(F)F)ccc2[C@H](c2ccc(NC34CC5CC(CC(C5)C3)C4)cc2)N1C(=O)C#C[Si](C)(C)C` [Compound A-26, 1-((1S,3S)-1-(4-(((3R,5R,7R)-adamantan-1-yl)amino)phenyl)-3-butyl-6-(trifluoromethoxy)-3,4-dihydroisoquinolin-2(1H)-yl)-3-(trimethylsilyl)prop-2-yn-1-one], the IC50 in assay [1] (setting [6]) was 0.043 µM; in assay [2] (setting [7]) it was 4.19 µM; with A431 cells (setting [8]), 3.05 µM.

For the molecule `C#CC(=O)N1[C@@H](CCCC)Cc2cc(C(F)F)ccc2[C@@H]1c1ccc(NC23CC4CC(CC(C4)C2)C3)cc1` [Compound B-63], the IC50 in assay [1] (setting [3]) stood at 0.009 µM; in assay [2] (setting [4]) it was 0.939 µM; in the assay on A431 cells (setting [5]), 0.727 µM.

With `C#CC(=O)N1[C@@H](CCCC)Cc2cc(CO)ccc2[C@@H]1c1ccc(NC23CC4CC(CC(C4)C2)C3)cc1` [Compound B-62], the IC50 in assay [1] (setting [3]) came to 0.005 µM; in assay [2] (setting [4]), 7.15 µM; in the assay with A431 cells (setting [5]), 2.43 µM.

In the case of `CCCC[C@H]1Cc2cc(OC)ccc2[C@H](c2ccc(NC3CC(F)(F)C3)cc2)N1C(=O)C#C[Si](C)(C)C` [Compound A-11, 1-((1S,3S)-3-butyl-1-(4-((3,3-difluorocyclobutyl)amino)phenyl)-6-methoxy-3,4-dihydroisoquinolin-2(1H)-yl)-3-(trimethylsilyl)prop-2-yn-1-one], the IC50 is 0.109 µM in assay [1] (setting [6]), over 1 µM in assay [2] (setting [7]) and over 1 µM in the assay with A431 cells (setting [8]).

In the case of `C#CC(=O)N1[C@@H](CCCC)Cc2cc(OC)ncc2[C@@H]1c1ccc(NC23CC4CC(CC(C4)C2)C3)cc1` [Compound B-67], the IC50 in assay [1] (setting [3]) came out at 0.005 µM; in assay [2] (setting [4]), 1.19 µM; in the assay on A431 cells (setting [5]) it was 1.13 µM.

As for `C#CC(=O)N1[C@@H](CCCC)Cc2cc(OCCOC)ccc2[C@@H]1c1ccc(NC23CC4CC(CC(C4)C2)C3)cc1` [Compound B-70], the IC50 amounted to 0.012 µM in assay [1] (setting [3]), 1.59 µM in assay [2] (setting [4]) and 2.08 µM in the assay on A431 cells (setting [5]).

For `C#CC(=O)N1[C@@H](CCCC)Cc2cc(OCc3cn(CCOCCOCCOCCNC(=O)CCCC[C@@H]4SC[C@@H]5NC(=O)N[C@@H]54)nn3)ccc2[C@@H]1c1ccc(NC23CC4CC(CC(C4)C2)C3)cc1` [Compound B-65], the IC50 (in assay [1] (setting [3]); in assay [2] (setting [4]); with A431 cells (setting [5])) was at least 10 µM in each case.

As for `CCCC[C@H]1Cc2cc(OC)ccc2[C@H](c2ccc(NC34CC5CC(CC(O)(C5)C3)C4)cc2)N1C(=O)C#C[Si](C)(C)C` [Compound A-47], the results for the IC50 (in assay [1] (setting [6]); in assay [2] (setting [7]); in the assay on A431 cells (setting [8])) were 0.049 µM, 2.33 µM and 1.63 µM, respectively.

For `C#CC(=O)N1[C@@H](CCCC)Cc2cc(OCCOC(=O)CN)ccc2[C@@H]1c1ccc(NC23CC4CC(CC(C4)C2)C3)cc1` [Compound B-57], the figures for the IC50 (in assay [1] (setting [3]); in assay [2] (setting [4]); in the assay with A431 cells (setting [5])) were 0.005 µM, 2.81 µM and 2.88 µM, respectively.

In the case of `C#CC(=O)N1[C@@H](CCCC)Cc2cc(OC)ccc2[C@H]1c1ccc(NC23CC4CC(CC(C4)C2)C3)c(C#N)c1` [Compound B-81], the figures for the IC50 (in assay [1] (setting [3]); in assay [2] (setting [4]); in the assay on A431 cells (setting [5])) were 0.01 µM, at least 10 µM and 4.9 µM, respectively.

Consider `CCCC[C@H]1Cc2cc(OC)ccc2[C@H](c2ccc(C#N)cc2)N1C(=O)C#C[Si](C)(C)C` [Compound A-1], for which the IC50 in assay [1] (setting [6]) was 0.043 µM; in assay [2] (setting [7]), 7 µM; in the assay on A431 cells (setting [8]) it was over 10 µM.

Consider `CCCC[C@H]1Cc2c([nH]c3ccccc23)[C@H](c2ccc(NC3CCC3)cc2)N1C(=O)C#C[Si](C)(C)C` [Compound A-2], for which the IC50 in assay [1] (786-0, 24 h, read-out: Cell proliferation IC50 (μM) 786-O) was 0.009 µM; in assay [2] (setting [7]) it was 8.63 µM; in the assay on A431 cells (A-431, 24 h, read-out: Cell proliferation IC50 (μM) A431), over 10 µM.

In the case of `C#CC(=O)N1[C@@H](CCCC)Cc2cc(OC)ccc2[C@@H]1c1ccc(NC2CCC2)c(Cl)c1` [Compound B-59], the IC50 in assay [1] (setting [3]) is 0.052 µM; in assay [2] (setting [4]), 5.84 µM; in the assay on A431 cells (setting [5]), 2.37 µM.

As to `C#CC(=O)N1[C@@H](CCCC)Cc2cc(OC)ccc2[C@@H]1c1ccc(NC23CC4CC(CC(C4)C2)C3)c(F)c1` [Compound B-84], the IC50 was 0.037 µM in assay [1] (setting [3]), 0.056 µM in assay [2] (setting [4]) and 0.881 µM in the assay with A431 cells (setting [5]).

On to `CCCC[C@H]1Cc2cc(OC)ccc2[C@H](c2ccc(N3CCC(F)(F)C3)cc2)N1C(=O)C#C[Si](C)(C)C` [Compound A-12, 1-((1S,3S)-3-butyl-1-(4-(3,3-difluoropyrrolidin-1-yl)phenyl)-6-methoxy-3,4-dihydroisoquinolin-2(1H)-yl)-3-(trimethylsilyl)prop-2-yn-1-one], for which the IC50 in assay [1] (setting [6]) is 0.051 µM; in assay [2] (setting [7]) it was over 1 µM; in the assay on A431 cells (setting [8]) it was over 1 µM.

In the case of `CCCC[C@H]1Cc2cc(OC)ccc2[C@H](c2ccc(NC34CC5CC(CC(C5)C3)C4)cc2)N1C(=O)C#C[Si](C)(C)CCCOC(C)=O` [Compound A-41], the IC50 in assay [1] (setting [6]) came to 0.0125 µM; in assay [2] (setting [7]) it was 1.86 µM; with A431 cells (setting [8]), 0.563 µM.

In the case of `C#CC(=O)N1[C@@H](CCCC)Cc2cc(C(F)(F)F)ccc2[C@@H]1c1ccc(NC23CC4CC(CC(C4)C2)C3)cc1` [Compound B-77], the IC50 was 0.012 µM in assay [1] (setting [3]), 1.21 µM in assay [2] (setting [4]) and 0.557 µM with A431 cells (setting [5]).

In the case of `C#CC(=O)N1[C@@H](CCCC)Cc2cc(OC)ccc2[C@@H]1c1ccc(NC23CC4CC(CC(C4)C2)C3)cc1F` [Compound B-83], the IC50 is 2.79 µM in assay [1] (setting [3]), 6.59 µM in assay [2] (setting [4]) and 7.87 µM in the assay on A431 cells (setting [5]).

`C#CC(=O)N1[C@@H](CCCC)Cc2cc(OCCO)ccc2[C@@H]1c1ccc(NC23CC4CC(CC(C4)C2)C3)cc1` [Compound B-60]: the IC50 in assay [1] (setting [3]) is 0.005 µM; in assay [2] (setting [4]), 2.18 µM; in the assay with A431 cells (setting [5]), 2.12 µM.

Source of the values: patent US20240092739A1, “COMPOUNDS AND METHODS OF USE” (Ferro Therapeutics, Inc, priority 2020, published 2024).
